# Experiments:
# [1] = molecular target: Recombinant human glycogen synthase kinase 3β (Homo sapiens, UniProt P49841); experiment: GSK3β inhibition, radiometric kinase assay with GS-2 peptide and 33P-ATP
# Protocol: Recombinant human glycogen synthase kinase 3B was assayed in MOPS 8 mM pH7.3, EDTA 0.2 mM, MgCl. 10 mM and sodium orthovanadate 0.25 mM in the presence of 62.5 μM of Phospho-Glycogen Synthase Peptide-2 (GS-2), 0.5 μCi γ-^33P-ATP and unlabelled ATP at a final concentration of 12.5 μM. The final assay volume was 20 μl. After incubation for 30 minutes at 30° C., 15 μl aliquots were spotted onto P81 phosphocellulose papers. Filters were washed four times for at least 10 minutes each and counted with 1.5 ml of scintillation cocktail in a scintillation counter.
# [2] = tested on: Tau phosphorylation [pS396] in human neuroblastoma SHSY5Y cells; experiment: Inhibition of tau phosphorylation in SHSY5Y cells, Tau [pS396] sandwich ELISA; assay type: cell-based; conditions: at 200 μM, 24 h
# Protocol: 1.1.2. Inhibition of Tau Phosphorylation Human neuroblastoma SHSY5Y cells were seeded in 96-well plates (25000 cells/well) in Dulbecco's modified Eagle's medium (DMEM) supplemented with 10% fetal calf serum. One day later, cells were treated with samples for 24 h at 37° C. After treatment, cultures were washed with phosphate-buffered saline and lysed for 30 min at 4° C. in 120 μl of extraction buffer (10 mM Tris-HCl, pH 7.4, 100 mM NaCl, 1 mM EDTA, 2 mM Na3VO4, 1% Triton X-100, 10% glycerol, 0.1% SDS, 0.5% Sodium deo.ycholate, 1 mM PMSF and a protease inhibitor cocktail.
# The quantitative definition of phosphorylated human Tau was made taking 40 μl of the cell lysate and using a phosphorylation-specific antibody against Tau [pS396] in a sandwich ELISA. Tau phosphorylation was estimated by measuring of absorbance at 450 nm in a microtiter plate reader.
# Chain of Recombinant human glycogen synthase kinase 3β (P49841 whole entry): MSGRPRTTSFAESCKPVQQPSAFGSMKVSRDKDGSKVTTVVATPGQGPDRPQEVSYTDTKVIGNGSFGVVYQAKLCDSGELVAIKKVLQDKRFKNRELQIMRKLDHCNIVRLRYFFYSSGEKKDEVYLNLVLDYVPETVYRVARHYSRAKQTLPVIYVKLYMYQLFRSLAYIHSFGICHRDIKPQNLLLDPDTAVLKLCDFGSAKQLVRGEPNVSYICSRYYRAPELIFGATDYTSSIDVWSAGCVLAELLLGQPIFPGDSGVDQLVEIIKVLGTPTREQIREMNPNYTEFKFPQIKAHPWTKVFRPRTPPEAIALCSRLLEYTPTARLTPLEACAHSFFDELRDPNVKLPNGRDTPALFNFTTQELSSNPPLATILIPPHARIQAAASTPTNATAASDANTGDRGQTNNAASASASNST
IC50 [1],"mechanism of inhibition of GSK3β ([1]; kinetic experiments varying both ATP and inhibitor concentrations, preliminary)",Compound,"inhibition of tau phosphorylation, cellular assay [2]"
4.5 µM,non As-competitive inhibitor,CC1=C(O)[C@@H](C/C(C)=C/CC[C@H](C)/C=C/C=C(\C)CCCc2ccoc2)OC1=O [Palinurin],significant inhibition
–,–,C/C(=C\C=C\C(C)CC/C=C(\C)CC1OC(=O)C(=O)C1=O)CCCc1ccoc1 (stereo not shown) [Tricantin],significant inhibition

# Source: patent US20070088080A1, “Gsk-3 inhibitors isolated from marine organisms” (NEUROPHARMA, S.A., priority 2003, published 2007)
